Values of other authors in patent publication US20080076825A1, “Novel Crystalline Forms of Entacapone and Production Thereof” (priority 2003, published 2008).

Tests used:
Parkinson's disease = conditions: in combination with levodopa and a decarboxylase inhibitor; by lengthening the dosage interval and/or reducing the single dose
[1] = commercially available entacapone

In the case of `CCN(CC)C(=O)/C(C#N)=C/c1cc(O)c(O)c([N+](=O)[O-])c1` [entacapone, (E)-N,N-diethyl-2-cyano-3-(3,4-dihydroxy-5-nitrophenyl)acrylamide], the “reduction of the amount of L-dopa to be administered” value (Parkinson's disease) is given as 10-30% and the bioavailability [1] is given as 35%.
